Activity calls are given as the source filed them. No cut-off for these calls is given here.
Each compound was assayed on Staphylococcus aureus (assay: Minimum inhibitory concentration, that inhibits growth of Staphylococcus aureus in the presence of subinhibitory (30 ug/mL) Berberine).
Assay type: functional

SMILES	MIC
COc1cc([C@H]2Oc3ccc(-c4cc(=O)c5c(O)cc(O)cc5o4)cc3O[C@@H]2CO)cc(OC)c1O	7.8 µg/mL
COc1cc([C@H]2Oc3cc(-c4cc(=O)c5ccc(O)cc5o4)ccc3O[C@@H]2CO)ccc1O	0.8 µg/mL
COc1cc([C@H]2Oc3cc([C@@H]4CC(=O)c5c(O)cc(O)cc5O4)cc(OC)c3O[C@@H]2CO)ccc1O	1.9 µg/mL
CC(C)Oc1ccc(-c2cc(=O)c3ccccc3o2)cc1	1.9 µg/mL
COc1cc([C@H]2Oc3cc(-c4cc(=O)c5c(O)cc(O)cc5o4)ccc3O[C@@H]2CO)cc(OC)c1O	8 µg/mL
COc1cc([C@H]2Oc3cc(-c4cc(=O)c5ccccc5o4)ccc3O[C@@H]2CO)ccc1O	0.08 µg/mL
COc1cc([C@H]2Oc3cc(-c4oc5cc(O)ccc5c(=O)c4O)ccc3O[C@@H]2CO)ccc1O	163 µg/mL
COc1cc([C@H]2Oc3cc([C@@H]4CC(=O)c5c(OC(C)=O)cc(OC(C)=O)cc5O4)ccc3O[C@@H]2COC(C)=O)ccc1OC(C)=O	1.6 µg/mL
CCCOc1ccc(-c2cc(=O)c3ccccc3o2)cc1	0.4 µg/mL
COc1cc([C@H]2Oc3cc([C@H]4Oc5cc(O)cc(O)c5C(=O)[C@@H]4O)ccc3O[C@@H]2CO)ccc1O [SILYBIN A]	12.5 µg/mL
COc1cc(OC)c2c(=O)cc(-c3ccccc3)oc2c1 [CHRYSIN DIMETHYL ETHER]	25 µg/mL
CCOc1ccc(-c2cc(=O)c3ccccc3o2)cc1	1.6 µg/mL
COc1cc([C@H]2Oc3cc(-c4cc(=O)c5ccc(OC(C)=O)cc5o4)ccc3O[C@@H]2COC(C)=O)ccc1OC(C)=O	1.6 µg/mL
COc1cc([C@@H]2Oc3ccc4c(=O)cc(-c5ccccc5)oc4c3O[C@H]2CO)ccc1O	1.9 µg/mL
C=CCOc1ccc(-c2cc(=O)c3ccccc3o2)cc1	6.3 µg/mL
O=c1cc(-c2ccccc2)oc2cc(O)cc(O)c12 [CHRYSIN]	25 µg/mL
COc1cc([C@H]2Oc3cc(-c4cc(=O)c5c(O)cc(O)cc5o4)cc(OC)c3O[C@@H]2CO)ccc1O	2 µg/mL
COc1ccc(-c2cc(=O)c3ccccc3o2)cc1OC [3',4'-DIMETHOXYFLAVONE]	6.3 µg/mL
O=c1cc(-c2ccc(OCCO)cc2)oc2ccccc12	25 µg/mL
COc1cc([C@H]2Oc3cc([C@@H]4CC(=O)c5c(O)cc(O)cc5O4)ccc3O[C@@H]2CO)ccc1O	3.1 µg/mL
COc1ccc(-c2cc(=O)c3c(O)cc(O)cc3o2)cc1O [DIOSMETIN]	15 µg/mL
COc1cc([C@H]2Oc3ccc(-c4cc(=O)c5c(O)cc(O)cc5o4)cc3O[C@@H]2CO)ccc1O	3.1 µg/mL
COc1cc([C@@H]2Oc3ccc4c(=O)cc(-c5ccc(O)cc5)oc4c3O[C@H]2CO)ccc1O	0.6 µg/mL
COc1cc([C@H]2Oc3cc(-c4cc(=O)c5c(O)cc(O)cc5o4)ccc3O[C@@H]2CO)ccc1O [HYDNOCARPIN]	0.1 µg/mL
COc1ccc(-c2cc(=O)c3ccccc3o2)cc1 [4'-METHOXYFLAVONE]	6.3 µg/mL
COc1cc([C@H]2Oc3cc(-c4cc(=O)c5c(OC(C)=O)cc(OC(C)=O)cc5o4)ccc3O[C@@H]2COC(C)=O)ccc1OC(C)=O	0.1 µg/mL

The compounds below were run on Staphylococcus aureus (assay: Minimum inhibitory concentration, that inhibits growth of Staphylococcus aureus in the presence of subinhibitory (30 ug/mL) Berberine Inactive).
Assay type: functional, organism-based

SMILES	IA
COc1cc([C@H]2Oc3cc(-c4oc5cc(OC(C)=O)cc(OC(C)=O)c5c(=O)c4OC(C)=O)ccc3O[C@@H]2COC(C)=O)ccc1OC(C)=O	inactive

The compounds below were run on Staphylococcus aureus (assay: Minimum inhibitory concentration, that inhibits growth of Staphylococcus aureus in the presence of subinhibitory (30 ug/mL) Berberine; Inactive).
Assay type: functional, organism-based

SMILES	IA
COc1cc(OC)c2c(=O)cc(-c3ccc(OC)c(OC)c3)oc2c1	inactive
COc1cc([C@H]2Oc3cc(-c4oc5cc(O)cc(O)c5c(=O)c4O)ccc3O[C@@H]2CO)ccc1O	inactive
O=c1c(O)c(-c2ccc(O)c(O)c2)oc2cc(O)cc(O)c12	inactive
CC(=O)Oc1cc(OC(C)=O)c2c(=O)cc(-c3ccc(OC(C)=O)c(OC(C)=O)c3)oc2c1	inactive
O=c1cc(-c2ccc(O)cc2)oc2ccccc12	inactive
O=c1cc(-c2ccc(O)cc2)oc2c(O)c(O)ccc12	inactive
O=c1cc(-c2ccccc2)oc2c(O)c(O)ccc12	inactive
O=c1cc(-c2ccc(OCc3ccccc3)cc2)oc2ccccc12	inactive
O=c1cc(-c2ccc3c(c2)O[C@H](c2ccc(O)cc2)[C@@H](CO)O3)oc2cc(O)cc(O)c12	inactive
CC(=O)Oc1ccc2c(=O)cc(-c3ccc(OC(C)=O)c(OC(C)=O)c3)oc2c1	inactive
O=c1cc(-c2ccc(O)c(O)c2)oc2cc(O)ccc12	inactive
O=c1cc(-c2ccc(O)c(O)c2)oc2cc(O)cc(O)c12	inactive
CCCCCCCCCOc1ccc(-c2cc(=O)c3ccccc3o2)cc1	inactive
